Experimental data: patent EP0533241A2, “Substituted alkyl derivatives of piperazinylcamphorsulfonyl oxytocin antagonists” (MERCK & CO. INC., priority 1991, dated 1993)

Target: T1, uterine OT receptors (Rattus norvegicus, UniProt P70536)
T1 sequence (P70536 1-388): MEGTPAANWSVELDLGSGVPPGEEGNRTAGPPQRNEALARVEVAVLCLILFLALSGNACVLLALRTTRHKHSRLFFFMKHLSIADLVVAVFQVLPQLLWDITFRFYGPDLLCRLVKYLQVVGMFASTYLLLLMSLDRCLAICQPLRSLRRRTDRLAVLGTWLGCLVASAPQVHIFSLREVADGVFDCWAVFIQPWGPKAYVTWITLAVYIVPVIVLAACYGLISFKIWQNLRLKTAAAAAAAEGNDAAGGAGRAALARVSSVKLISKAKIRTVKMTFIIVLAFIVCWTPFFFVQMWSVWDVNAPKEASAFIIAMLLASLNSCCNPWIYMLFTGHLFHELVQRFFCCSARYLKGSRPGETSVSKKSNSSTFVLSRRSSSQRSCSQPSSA
Experiment: [3H]Oxytocin radioligand binding competition assay, crude membrane preparation of uteri from DES-treated rats
Settings: for IC50: 1 nM [3H]OT, 60 minutes, 22 °C, rat uterine membranes
Procedure: The high affinity binding of [^3H] Oxytocin (OT)([tyrosyl, 3,5-[^3H]OT; 30-60 Ci/mmol; New England Nuclear. Boston, MA) to uterine OT receptors was based on an assay*using a crude membrane preparation of uteri taken from diethylstilbestrol dipropionate (DES)-treated (0.3 mg/kg, ip; 18-24) rats. Competition studies were conducted at equilibrium (60 minutes; 22 ° C) using 1 NM[^3H]OT in the following assay buffer: 50 mM Tris-HCI, 5 mM MgCl2, and 0.1% BSA, pH 7.4. Nonspecific binding (10% of the total binding) was determined using 1µM unlabeled OT and the binding reaction was terminated by filtration through glass fiber filters using a cell harvester (model 7019, Skatron, Inc., Sterling, VA).

Structure (SMILES) | IC50 | also measured
Cc1ccccc1N1CCN(S(=O)(=O)CC23CCC(CC2N(C)C(=O)C(CCS(C)(=O)=O)N(C)C)C3(C)C)CC1 (centres unmarked) [Example 42] | 9.2 nM | 
CC(=O)NC(CC=C1CC2CCC1(CS(=O)(=O)N1CCN(c3ccccc3C)CC1)C2(C)C)C(=O)O (centres unmarked) [Example 29, 1-((7,7-DIMETHYL-2-(3-ACETAMIDO-3-CARBOXY) PROPYLIDINE-BICYCLO(2.2.1)HEPTAN-1-YL) METHANESULFONYL)-4-(2-METHYLPHENYL)PIPERAZINE] |  | inhibition at 1 µM (read-out: inhibition at 1,000 nM): 78%
Cc1ccccc1N1CCN(S(=O)(=O)CC23CCC(CC2NC(=O)C(CCS(C)(=O)=O)N(C)C)C3(C)C)CC1 (centres unmarked) [Example 38] | 5.4 nM | 
Cc1ccccc1N1CCN(S(=O)(=O)CC23CCC(CC2NC(=O)C(CCS(C)(=O)=O)NC(=O)Cc2c[nH]cn2)C3(C)C)CC1 (centres unmarked) [Example 37] | 1.2 nM | 
Cc1ccccc1N1CCN(S(=O)(=O)CC23CCC(CC2C(=O)O)C3(C)C)CC1 (centres unmarked) [Example 24] | 260 nM | 
Cc1ccccc1N1CCN(S(=O)(=O)CC23CCC(CC2N(C)C(=O)C(N)CCS(C)(=O)=O)C3(C)C)CC1 (centres unmarked) [Example 41] | 6.3 nM | 
COC(=O)C1CC2CCC1(CS(=O)(=O)N1CCN(c3ccccc3C)CC1)C2(C)C (stereo not drawn) [Example 23, 1-((7,7-DIMETHYL-2-ENDO-METHOXYCARBONYL-BICYCLO (2.2.1)HEPTAN-1-YL)METHANESULFONYL)-4-(2-METHYLPHENYL)PIPERAZINE] | 120 nM | 
CCOC(=O)CN1CCCC(C(=O)NC(C)CC2(O)CC3CCC2(CS(=O)(=O)N2CCN(c4ccccc4C)CC2)C3(C)C)C1 (centres unmarked) [Example 57] |  | inhibition at 100 nM (at 100 nM): 66% inhibition at 100 nM
